The values below come from paper PMC11473290, “1,3,4-oxadiazoles as inhibitors of the atypical member of the BET family bromodomain factor 3 from Trypanosoma cruzi (TcBDF3)” (Frontiers in Microbiology, 2024).

Where two headings read alike, the source gives them in different places. A value given as a limit tells only on which side of the number the result lay.

Broadly, the Kd is the equilibrium constant for the complex coming apart. One may read the IC50 as the concentration that inhibits the measured activity by half. By CC50 is commonly meant the concentration that lowers cell viability or growth by half. In general, melting point refers to the temperature of the solid-liquid transition.

The target in data set [1] is T1, TcBDF3 (Trypanosoma cruzi, UniProt Q4DXV1). In words: Thermal shift assay (DSF), dissociation constants. The class given is binding. The following applies: full-length TcBDF3; SD from three independent experiments. Here is the method: The proteins were buffered in 10-mM HEPES, pH 7.5, and 500 mM NaCl and assayed in a 48-well plate at a final concentration of 2 μM in a volume of 20 μL. Compounds were added at a final concentration between 1 and 200 μM to calculate dissociation constants. In this assay, A1B4, A1B4c, A5B4 and A5B4c were used. SYPRO Orange (Invitrogen) was added as a fluorescence probe at a dilution of 1:1000. The excitation and emission filters for the SYPRO Orange dye were set at 465 and 590 nm, respectively. The temperature was increased with steps of 2°C/min from 25°C to 96°C, and fluorescence readings were taken at each interval in a CFX Opus 96 Real-Time System (Biorad) and analyzed using Maestro Software (Biorad). The melting curves and average melting temperature for each condition were obtained and plotted in temperature vs. concentration graphs in GraphPad Prism 9.0. Plots were fitted using the differential fluorescence scanning (DSF) single binding site equation to obtain the dissociation constants (Kd) in GraphPad Prism 9.0.
T1 sequence (Q4DXV1 entry or part of it): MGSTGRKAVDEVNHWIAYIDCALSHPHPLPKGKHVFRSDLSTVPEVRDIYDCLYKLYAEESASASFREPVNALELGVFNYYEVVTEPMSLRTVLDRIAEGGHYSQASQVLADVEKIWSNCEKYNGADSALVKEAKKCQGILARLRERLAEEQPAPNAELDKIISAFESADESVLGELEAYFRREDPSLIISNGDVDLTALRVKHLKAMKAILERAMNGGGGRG

The test system of data set [2] is T. cruzi Dm28c amastigotes. In words: Beta-galactosidase assay, amastigotes in Vero cells. The data set is classed as cell-based, Trypanosoma cruzi. The following applies: for SI (A), CC50/IC50 amastigotes: CC50 Vero cells / IC50; for IC50: Dm28c strain expressing β-galactosidase, 48 h postinfection of Vero cells, read-out: IC50 ± SD Amastigotes. Here is the method: (§1) T. cruzi Dm28c that expresses the E. coli LacZ gene epimastigotes, trypomastigotes, and amastigotes were cultured and obtained as previously described ([Buckner et al., 1996]; [Alonso et al., 2021]). […] The controls included for the amastigotes (intracellular stage) were (a) uninfected cells and (b) infected with 1 μg/mL benznidazole (BZ) (positive control) and 1% DMSO to evaluate the toxicity of the solvent. For epimastigotes and trypomastigotes, the controls used were: 1-μg/ml benznidazole (BZ) (positive control) and 1% DMSO to evaluate solvent toxicity. Results obtained with this assay were verified by manually counting the parasites. The results were expressed as the percentage of inhibition of T. cruzi growth in compound-treated infected cells compared to untreated infected cells for amastigotes. For epimastigotes and trypomastigotes, treated and untreated cultured parasites were compared. Quadruplicates were run in the same microplate and repeated in three experiments. Half-maximal IC50 values were calculated using non-linear regression on GraphPad Prism 9.0, as previously described ([Alonso et al., 2021]).

In data set [3] the target is T1, TcBDF3. As to the kind of experiment: Fluorescence polarization (FP) assay, displacement of BSP-AF488 probe. The class given is binding. The note with it: 0.5 μM BSP-AF488, 100-μM TcBDF3. The procedure:
FP measurement was performed on a Cary Eclipse spectrophotometer equipped with a polarizer at an excitation wavelength of 488 nm and an emission wavelength of […] in a 3-ml fluorescence cuvette. The essay was set at a final volume of 2 mL, 0.5 μM of BSP-AF488, 100-μM TcBDF3, phosphate pH = 8, glycerol 1%, and DMSO 0.5%. The FP values were plotted against the log of the compound concentrations in a non-linear regression model in GraphPad Prism 9.0 as previously described ([Zhang et al., 2002]). In this assay, A1B4, A1B4c, and A5B4c were used. Briefly, free and bound probes (BSP-AF488 in the presence of TcBDF3) were included in each replica. Since the intensity of the probe remains similar for all samples, the fraction of the probe bound to TcBDF3 is correlated to the mP value. Thus, the percentage of inhibition can be derived from the equation % inhibition =100[1 − (mP − mPf)/(mPb − mPf)], in which mPf is the free probe control and mPb is the bound probe control. Based on the percentage of inhibition, the inhibitory concentration (IC50), or the inhibitor concentration at which 50% of the bound probe is displaced, is obtained by fitting the inhibition data.

A short description of data set [4]: MTT assay, cell viability. The data set is classed as cell-based. The following applies: African green monkey, Vero cells. Here is the method:
The 3-(4,5-dimethylthiazol-2-yl)-2,5-diphenyltetrazolium bromide (MTT) reduction assay determined cell viability after treatment as previously described ([García et al., 2018]). Optical density (OD) was spectrophotometrically quantified (λ = 540 nm) using a Synergy HT multidetection microplate reader. DMSO was used as blank, and each treatment was performed in triplicates. The 50% cytotoxic concentration (CC50) values were calculated by non-linear regression on GraphPad Prism 9.0, and the selectivity indexes (SI) were determined as the ratio CC50/IC50 in all three life cycle stages.

Data set [5] deals with T. cruzi Dm28c epimastigotes. As to the kind of experiment: Beta-galactosidase assay, epimastigotes. The class given is cell-based, Trypanosoma cruzi. The note with it: for SI (E), CC50/IC50 epimastigotes: CC50 Vero cells / IC50; for IC50: Dm28c strain expressing β-galactosidase, read-out: IC50 ± SD Epimastigotes. The procedure: as §1
Data set [6] deals with T. cruzi Dm28c trypomastigotes. As to the kind of experiment: Beta-galactosidase assay, trypomastigotes. The class given is cell-based, Trypanosoma cruzi. The note with it: for SI (T), CC50/IC50 trypomastigotes: CC50 Vero cells / IC50. Here is the method:
as §1

Data set [7] deals with T. cruzi Dm28c amastigotes. The arrangement: method as in García et al., 2018. The note with it: already published, ref García et al., 2018, cited from earlier work.
Data set [8] has as its target T1, TcBDF3. The note with it: full-length TcBDF3; previously published; ref García et al., 2018; read-out: Kd ± SD DSF; cited from earlier work.
For data set [9], the system named is T. cruzi Dm28c epimastigotes. The arrangement: method as in García et al., 2018. The note with it: already published, ref García et al., 2018, cited from earlier work.
For data set [10], the system named is T. cruzi Dm28c trypomastigotes. The arrangement: method as in García et al., 2018. The note with it: already published, ref García et al., 2018, cited from earlier work.
Data set [11] concerns TcBD3 (bromodomain of TcBDF3, amino acids 1-151). As to the kind of experiment: Tryptophan intrinsic fluorescence quenching assay. The following applies: 10-μM protein; 5, 10 and 20 μM compound; cut-off 0.9 normalized units. The data set is classed as binding, Trypanosoma cruzi. The procedure:
(§2) 96-well black microplates with 10-μM recombinant proteins (TcBDF3, TcBDF3m, TcBD3, and TcBD2) and three concentrations of each compound were used (5, 10, and 20 μM). In this assay, A1B4 and iBET-151 (positive control) were used. All determinations were made from the top with an excitation wavelength of 275 and a 340/30 nm emission filter, 50 reads per well, and a PMT-sensitivity setting of 180 in a Synergy HT multidetection microplate reader equipped with time-resolved capable optics. Each condition was tested in triplicates, and normalized maximum fluorescence intensityvs. Concentration was plotted using GraphPad Prism 9.0. The relative fluorescence intensity obtained to the condition without the inhibitor was normalized.

For data set [12], the system named is TcBDF3m (Y123A and L130A). In words: Tryptophan intrinsic fluorescence quenching assay. The data set is classed as binding, Trypanosoma cruzi. The following applies: 10-μM protein; 5, 10 and 20 μM compound; cut-off 0.9 normalized units. Here is the method:
as §2

Data set [13] deals with TcBD2 (recombinant bromodomain of TcBDF2). In words: Tryptophan intrinsic fluorescence quenching assay. The note with it: 10-μM protein; 5, 10 and 20 μM compound; cut-off 0.9 normalized units. The data set is classed as binding, Trypanosoma cruzi. The procedure: as §2
In a further data set the test system is Vero cells. Details: method as in García et al., 2018. The note with it: MTT; already published; ref García et al., 2018; cited from earlier work.

Turning to `O=C(N/N=C/c1ccc(CO)o1)c1cccs1` [A5B4, (E/Z)-N′-((5-(hydroxymethyl)furan-2-yl)methylene) thiophene-2-carbohydrazide], the dissociation constant (Kd) at TcBDF3 [1] turned out to be 136 ± 2.4 µM.
`COc1cc(-c2nnc(-c3cccs3)o2)ccc1O` [A1B4c, 2-methoxy-4-(5-(thiophen-2-yl)-1,3,4-oxadiazol-2-yl)phenol] showed a melting point of 224 °C. Moreover, in data set [2], the “SI (A), CC50/IC50 amastigotes” value turned out to be 13 and the IC50 turned out to be 6.9 ± 0.67 µM. Besides, in data set [2] (Trypanosoma cruzi, Vero, 48 h), the IC50 was under 10 µM. The IC50 at TcBDF3 [3] came to 8.4 ± 0.5 µM. Further, in [4], the CC50 worked out at 90.8 ± 3.54 µM. Moreover, the Kd on TcBDF3 [1] came to 4 ± 0.3 µM. In data set [5], the “SI (E), CC50/IC50 epimastigotes” value amounted to 11 and the IC50 was 8.13 ± 0.87 µM. In addition, the IC50 in data set [5] (Trypanosoma cruzi) is under 10 µM. Moreover, the “SI (T), CC50/IC50 trypomastigotes” value in data set [6] is on record as 54.4.
Regarding `COc1cc(/C=N/NC(=O)c2cccs2)ccc1O` [A1B4, (E)-N′-(4-hydroxy-3-methoxybenzylidene)thiophene-2-carbohydrazide], the IC50 in data set [7] (Dm28c strain expressing β-galactosidase, read-out: IC50 ± SD Amastigotes) is 13.1 ± 1.43 µM; in data set [9] (Dm28c strain expressing β-galactosidase, read-out: IC50 ± SD Epimastigotes), 23 ± 2.04 µM; in data set [10] (Dm28c strain expressing β-galactosidase, read-out: IC50 ± SD Tripomastigotes), 17.8 ± 2.13 µM; on TcBDF3 [3], 2.4 ± 0.3 µM. Further, the “SI (A), CC50/IC50 amastigotes” value in [7] is 20.5. Also, the Kd on TcBDF3 [8] is 1.7 ± 0.2 µM. Also, in [9], the “SI (E), CC50/IC50 epimastigotes” value is recorded as 11.7. Also, the “SI (T), CC50/IC50 trypomastigotes” value in data set [10] was 15. The “Binding (fluorescence quenching)” value in data set [11] was “binds”; in [12] it was “did not bind”; in [13] it was “did not bind”. In addition, the CC50 in the data set on Vero cells was 269 ± 4.28 µM.
For the compound `OCc1ccc(-c2nnc(-c3cccs3)o2)o1` [A5B4c, (5-(5-(thiophene-2-yl)-1,3,4-oxadiazol-2-yl)furan-2-yl)methanol], the “SI (A), CC50/IC50 amastigotes” value in [2] stood at 37. Besides, the IC50 in [2] (Trypanosoma cruzi, Vero, 48 h) is 8.49 ± 1.63 µM; on TcBDF3 [3], 10.5 ± 0.9 µM; in data set [5] (Trypanosoma cruzi), 14.8 ± 1.38 µM; in data set [6] (Trypanosoma cruzi, Dm28c strain expressing β-galactosidase, read-out: IC50 ± SD Tripomastigotes), 13.4 ± 1.25 µM. For the same compound, in [4], the CC50 worked out at 316 ± 4.35 µM. In addition, the Kd at TcBDF3 [1] came out at 4.8 ± 0.2 µM. Further, the “SI (E), CC50/IC50 epimastigotes” value in data set [5] was 21.3. Further, the “SI (T), CC50/IC50 trypomastigotes” value in data set [6] came to 23.5.
